The supplement of paper PMC11061612

Key:
[1] = compound: NC1(c2ccc(-c3nc4ccn5c(=O)[nH]nc5c4cc3-c3ccccc3)cc2)CCC1 [MK-2206]; conditions: max 10 µM
Procedure, shortened: (§1)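 After 24 hours at 37°C and 5% CO2 in 1536-well plates holding 7.5 μl of DMEM/F12 or RPMI with 10% FBS, cancer cell lines were dosed for 72 hours, with final DMSO typically 0.2%. Viability came from CellTiter-Glo 2.0 luminescence, scaled between the means of blank wells and DMSO wells. A non-linear mixed effects model fitted a two-parameter logistic curve to each dose response to give the single-agent IC50.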

[2] = compound: Cn1cnc2c(F)c(Nc3ccc(Br)cc3Cl)c(C(=O)NOCCO)cc21 [Selumetinib]; conditions: max 10 µM
Procedure, shortened: as §1

[3] = compound: C1CN(CCC1(C(=O)N[C@@H](CCO)C2=CC=C(C=C2)Cl)N)C3=NC=NC4=C3C=CN4 [AZD5363]; conditions: max 10 µM
Procedure, shortened: as §1

[4] = compound: COc1cc(Nc2ncc3c(n2)-c2ccc(Cl)cc2C(c2c(F)cccc2OC)=NC3)ccc1C(=O)O [Alisertib]; conditions: max 10 µM
Procedure, shortened: as §1

[5] = compound: C[C@@H]1COCCN1C2=NC(=NC(=C2)C3(CC3)[S@](=N)(=O)C)C4=C5C=CNC5=NC=C4 [AZD6738]; conditions: max 10 µM
Procedure, shortened: as §1

[6] = compound: O=C(Nc1ccc2[nH]nc(-c3ccncc3)c2c1)[C@@H]1CCN(CC(=O)N2CCN(c3ccc(-c4ncccn4)cc3)CC2)C1; conditions: max 5 µM
Procedure, shortened: as §1

[7] = compound: CC1=CN2[C@@H](C1)C=NC3=CC(=C(C=C3C2=O)OC)OCCCCCOC4=C(C=C5C(=C4)N=C[C@@H]6CC(=CN6C5=O)C)OC [SG3199]; conditions: max 0.001 µM
Procedure, shortened: as §1

[8] = compound: CN(CC[C@H](CSC1=CC=CC=C1)NC2=C(C=C(C=C2)S(=O)(=O)NC(=O)C3=CC=C(C=C3)N4CCC(CC4)[C@H](C5=CC=CC=C5C6=CC=C(C=C6)Cl)O)S(=O)(=O)C(F)(F)F)CCO [AZD4320]; conditions: max 1 µM
Procedure, shortened: as §1

[9] = compound: CS(=O)(=O)CCNCc1ccc(-c2ccc3ncnc(Nc4ccc(OCc5cccc(F)c5)c(Cl)c4)c3c2)o1 [Lapatinib]; conditions: max 10 µM
Procedure, shortened: as §1

[10] = compound: O=C(c1cc(Cc2n[nH]c(=O)c3ccccc23)ccc1F)N1CCN(C(=O)C2CC2)CC1 [Olaparib]; conditions: max 10 µM
Procedure, shortened: as §1

[11] = compound: O=c1[nH]cc(F)c(=O)[nH]1 [5-Fluorouracil]; conditions: max 20 µM
Procedure, shortened: as §1

[12] = compound: C1CC(C1)(C(=O)[O-])C(=O)[O-].N.N.[Pt+2] [Carboplatin]; conditions: max 10 µM
Procedure, shortened: as §1

[13] = compound: CC(=O)O[C@H]1C(=O)[C@@]2(C)[C@H]([C@H](OC(=O)c3ccccc3)[C@]3(O)C[C@H](OC(=O)[C@H](O)[C@@H](NC(=O)c4ccccc4)c4ccccc4)C(C)=C1C3(C)C)[C@]1(OC(C)=O)CO[C@@H]1C[C@@H]2O [Paclitaxel]; conditions: max 3 µM
Procedure, shortened: as §1

[14] = compound: C=CCn1c(=O)c2cnc(Nc3ccc(N4CCN(C)CC4)cc3)nc2n1-c1cccc(C(C)(C)O)n1 [AZD1775]; conditions: max 3 µM
Procedure, shortened: as §1

[15] = compound: Nc1ccn([C@@H]2O[C@H](CO)[C@@H](O)C2(F)F)c(=O)n1 [Gemcitabine]; conditions: max 0.3 µM
Procedure, shortened: as §1

[16] = compound: Cc1nc(-c2cn3c(n2)-c2ccc(-c4cnn(C(C)(C)C(N)=O)c4)cc2OCC3)n(C(C)C)n1 [Taselisib]; conditions: max 10 µM
Procedure, shortened: as §1

[17] = compound: CC1(C)CCC(CN2CCN(c3ccc(C(=O)NS(=O)(=O)c4ccc(NCC5CCOCC5)c([N+](=O)[O-])c4)c(Oc4cnc5[nH]ccc5c4)c3)CC2)=C(c2ccc(Cl)cc2)C1 [Venetoclax]; conditions: max 1 µM
Procedure, shortened: as §1

[18] = compound: COc1cc2ncnc(Nc3ccc(F)c(Cl)c3)c2cc1OCCCN1CCOCC1 [Gefitinib]; conditions: max 10 µM
Procedure, shortened: as §1

[19] = compound: Cc1cc2ncnn2cc1Nc1ncc2c(n1)n(C1CCOCC1)c(=O)n2C [AZD7648]; conditions: max 10 µM
Procedure, shortened: as §1

[20] = compound: CC(=O)c1c(C)c2cnc(Nc3ccc(N4CCNCC4)cn3)nc2n(C2CCCC2)c1=O [Palbociclib]; conditions: max 10 µM
Procedure, shortened: as §1

[21] = compound: C[C@@H](Oc1cc(-c2cnn(C3CCNCC3)c2)cnc1N)c1c(Cl)ccc(F)c1Cl [Crizotinib]; conditions: max 10 µM
Procedure, shortened: as §1

[22] = compound: CC(C)n1c(=O)n(C)c2cnc3cc(F)c(-c4ccc(OCCCN5CCCCC5)nc4)cc3c21 [AZD1390]; conditions: max 0.3 µM
Procedure, shortened: as §1

[23] = compound: C[C@@H](c1ccc2nccn2c1)n1nnc2ncc(-c3cnn(C)c3)nc21 [Savolitinib]; conditions: max 1 µM
Procedure, shortened: as §1

[24] = compound: C[C@@H](Nc1cc(F)cc(F)c1)c1cc(C(=O)N(C)C)cc2c(=O)cc(N3CCOCC3)oc12 [AZD8186]; conditions: max 10 µM
Procedure, shortened: as §1

[25] = compound: COc1nnc2ccc(N3CCC(c4ccc(OCCN5CCN(C)C(=O)[C@H]5C)cc4)CC3)nn12 [AZD5153]; conditions: max 1 µM
Procedure, shortened: as §1

[26] = compound: COc1cc([C@@H]2c3cc4c(cc3[C@@H](O[C@@H]3O[C@@H]5CO[C@@H](C)O[C@H]5[C@H](O)[C@H]3O)[C@H]3COC(=O)[C@H]23)OCO4)cc(OC)c1O [Etoposide]; conditions: max 10 µM
Procedure, shortened: as §1

[27] = compound: N#Cc1cnc(Nc2cc(NC[C@H]3CNCCO3)c(C(F)(F)F)cn2)cn1 [SRA737]; conditions: max 10 µM
Procedure, shortened: as §1

[28] = compound: COc1cccc(OCCCN)c1-c1cc(Nc2cnc(C#N)cn2)n[nH]1 [Prexasertib]; conditions: max 1 µM
Procedure, shortened: as §1

[29] = compound: CCc1c2c(nc3ccc(O)cc13)-c1cc3c(c(=O)n1C2)COC(=O)[C@]3(O)CC [SN-38]; conditions: max 0.3 µM
Procedure, shortened: as §1

[30] = compound: Cc1c2c(nn1C)CSCc1cc(n(C)n1)CSc1cc(c3ccccc3c1)OCCCc1c(C(=O)O)n(C)c3c-2c(Cl)ccc13 [AZD5991]; conditions: max 1 µM
Procedure, shortened: as §1

[31] = compound: COc1cccc2c1C(=O)c1c(O)c3c(c(O)c1C2=O)C[C@@](O)(C(=O)CO)C[C@@H]3O[C@H]1C[C@H](N)[C@H](O)[C@H](C)O1 [Doxorubicin]; conditions: max 1 µM
Procedure, shortened: as §1

[32] = compound: CN(C)CCCOc1ccc(-c2ccc3ncc4c(c3c2)n(C2CCOCC2)c(=O)n4C)cn1 [AZD0156]; conditions: max 3 µM
Procedure, shortened: as §1

[33] = compound: CCN(CCO)CCCOc1ccc2c(Nc3cc(CC(=O)Nc4cccc(F)c4)[nH]n3)ncnc2c1 [AZD2811]; conditions: max 1 µM
Procedure, shortened: as §1

[34] = compound: CC1=C(C(=CC=C1)Cl)NC(=O)C2=CN=C(S2)NC3=CC(=NC(=N3)C)N4CCN(CC4)CCO [Dasatinib]; conditions: max 2 µM
Procedure, shortened: as §1

[35] = compound: CC(=O)Nc1cccc(-n2c(=O)n(C3CC3)c(=O)c3c(Nc4ccc(I)cc4F)n(C)c(=O)c(C)c32)c1 [Trametinib]; conditions: max 1 µM
Procedure, shortened: as §1

Cell Line | IC50, cell viability 72 h [1] [µM] | IC50, cell viability 72 h [2] [µM] | IC50, cell viability 72 h [3] [µM] | IC50, cell viability 72 h [4] [µM] | IC50, cell viability 72 h [5] [µM] | IC50, cell viability 72 h [6] [µM] | IC50, cell viability 72 h [7] [µM] | IC50, cell viability 72 h [8] [µM] | IC50, cell viability 72 h [9] [µM] | IC50, cell viability 72 h [10] [µM] | IC50, cell viability 72 h [11] [µM] | IC50, cell viability 72 h [12] [µM] | IC50, cell viability 72 h [13] [µM] | IC50, cell viability 72 h [14] [µM] | IC50, cell viability 72 h [15] [µM] | IC50, cell viability 72 h [16] [µM] | IC50, cell viability 72 h [17] [µM] | IC50, cell viability 72 h [18] [µM] | IC50, cell viability 72 h [19] [µM] | IC50, cell viability 72 h [20] [µM] | IC50, cell viability 72 h [21] [µM] | IC50, cell viability 72 h [22] [µM] | IC50, cell viability 72 h [23] [µM] | IC50, cell viability 72 h [24] [µM] | IC50, cell viability 72 h [25] [µM] | IC50, cell viability 72 h [26] [µM] | IC50, cell viability 72 h [27] [µM] | IC50, cell viability 72 h [28] [µM] | IC50, cell viability 72 h [29] [µM] | IC50, cell viability 72 h [30] [µM] | IC50, cell viability 72 h [31] [µM] | IC50, cell viability 72 h [32] [µM] | IC50, cell viability 72 h [33] [µM] | IC50, cell viability 72 h [34] [µM] | IC50, cell viability 72 h [35] [µM]
NCI-H1299 (Non-Small Cell Lung Carcinoma) | > 10 | > 10 | > 10 | > 10 | 9.87 | > 5 | > 0.001 | > 1 | > 10 | > 10 | > 20 | > 10 | 0.134 | 0.364 | 0.239 | > 10 | > 1 | > 10 | > 10 | > 10 | > 10 | > 0.3 | > 1 | > 10 | 0.184 | > 10 | > 10 | 0.1 | > 0.3 | > 1 | 0.88 | > 3 | > 1 | 1.57 | 0.912
NCI-H2595 (Mesothelioma) | > 10 | > 10 | > 10 | > 10 | > 10 | > 5 | > 0.001 | > 1 | > 10 | > 10 | > 20 | > 10 | 1.28 | > 3 | > 0.3 | > 10 | > 1 | > 10 | > 10 | > 10 | > 10 | > 0.3 | > 1 | > 10 | > 1 | > 10 | > 10 | > 1 | > 0.3 | > 1 | > 1 | > 3 | > 1 | > 2 | > 1
OCI-AML2 (Acute Myeloid Leukemia) | > 10 | 0.0366 | 7.58 | 1.34 | 0.965 | 0.0515 | > 0.001 | 0.00633 | > 10 | 6.69 | 1.2 | > 10 | 0.00445 | 0.358 | 0.00797 | > 10 | 0.00792 | > 10 | > 10 | 3.17 | 2.78 | > 0.3 | > 1 | > 10 | 0.043 | 0.503 | 1.17 | 0.0124 | 0.0047 | 0.193 | 0.0123 | > 3 | 0.341 | > 2 | < 0.001
SK-N-FI (Neuroblastoma) | > 10 | 7.75 | > 10 | 2.48 | 8.51 | > 5 | > 0.001 | > 1 | > 10 | > 10 | > 20 | > 10 | 2.25 | 1.6 | > 0.3 | 0.955 | > 1 | > 10 | > 10 | > 10 | > 10 | > 0.3 | > 1 | > 10 | 0.447 | > 10 | > 10 | 0.0603 | 0.157 | > 1 | > 1 | > 3 | > 1 | > 2 | 0.117
SN12C (Kidney Carcinoma) | > 10 | > 10 | > 10 | > 10 | > 10 | > 5 | > 0.001 | > 1 | > 10 | > 10 | > 20 | > 10 | > 3 | > 3 | > 0.3 | > 10 | > 1 | > 10 | > 10 | > 10 | > 10 | > 0.3 | > 1 | > 10 | > 1 | > 10 | > 10 | > 1 | 0.29 | > 1 | > 1 | > 3 | > 1 | > 2 | > 1
